Laboratory results from patent publication US20140193827A1 (TEVA PHARMACEUTICAL INDUSTRIES, LTD., priority 2013, published 2014).

Test system: GA-primed murine splenocytes
Test: ANOVA-based pattern identification method
Type: cell-based, mouse
Details: DOWN IN generic ONLY; group mean
Source text: We sought to identify probes matching specific patterns of expression across experimental conditions using a technique that referred to as the ANOVA-based Pattern Identification Method.
To carry out the analysis in a general manner, we computed the 6 p-values required to do pairwise comparisons of all 4 conditions for all probes using the ANOVA1 function in MATLAB. We then identified sets of probes matching the desired pattern. In the example above, probes were identified as being only affected by PG if their 6 pairwise comparison pvalues matched the following pattern (pGA-PG<0.05, pPG-reference standard<0.05, pPG-Medium<0.05, pGAMedium>0.05, pGA-reference standard>0.05, preference standard-Medium>0.05).

Q: For glatiramer acetate [GA], which CFL2 expression is on record?
A: The CFL2 expression was 6.246.

Q: What about the CHMP7 expression of the same substance?
A: The CHMP7 expression was 9.491.

Q: And the CLASP1 expression?
A: Its CLASP1 expression is 6.034.

Q: What about the COL23A1 expression of the same substance?
A: Its COL23A1 expression is 7.128.

Q: What about the COPS3 expression of the same substance?
A: The COPS3 expression was 6.029.

Q: What about the COPZ1 expression of the same substance?
A: The COPZ1 expression was 6.26.

Q: And the CPEB2 expression?
A: The CPEB2 expression was 5.648.

Q: And the CRLF1 expression?
A: The CRLF1 expression was 5.648.

Q: And the CTDSPL2 expression?
A: The CTDSPL2 expression was 6.711.

Q: And the D12WSU95E expression?
A: Its D12WSU95E expression is 9.426.

Q: What about the D130078K04RIK expression of the same substance?
A: The D130078K04RIK expression was 5.957.

Q: And the D730033A03RIK expression?
A: Its D730033A03RIK expression is 5.894.

Q: What about the D930007M19RIK expression of the same substance?
A: The D930007M19RIK expression was 6.333.

Q: And the DEFB14 expression?
A: The DEFB14 expression was 5.775.

Q: What about the DLC1 expression of the same substance?
A: Its DLC1 expression is 5.804.

Q: What about the DLG4 expression of the same substance?
A: Its DLG4 expression is 6.044.

Q: And the DLGAP2 expression?
A: The DLGAP2 expression was 5.718.

Q: And the DLX6 expression?
A: Its DLX6 expression is 5.766.

Q: What about the DNAJC28 expression of the same substance?
A: The DNAJC28 expression was 5.998.

Q: And the DPPA1 expression?
A: The DPPA1 expression was 5.758.

Q: What about the DPPA4 expression of the same substance?
A: The DPPA4 expression was 5.791.

Q: What about the E230016F22RIK expression of the same substance?
A: Its E230016F22RIK expression is 5.685.

Q: And the E530016P10RIK expression?
A: Its E530016P10RIK expression is 6.096.

Q: And the EEFSEC expression?
A: The EEFSEC expression was 5.654.

Q: What about the EG546913 expression of the same substance?
A: The EG546913 expression was 5.766.

Q: What about the ELF2 expression of the same substance?
A: Its ELF2 expression is 6.475.

Q: And the EP400 expression?
A: Its EP400 expression is 5.945.

Q: What about the FAAH expression of the same substance?
A: Its FAAH expression is 5.947.

Q: What about the FABP2 expression of the same substance?
A: Its FABP2 expression is 5.582.

Q: What about the FBXW13 expression of the same substance?
A: Its FBXW13 expression is 5.945.

Q: What about the FOXJ3 expression of the same substance?
A: The FOXJ3 expression was 8.648.

Q: What about the GADD45GIP1 expression of the same substance?
A: Its GADD45GIP1 expression is 5.893.

Q: What about the GALNT1 expression of the same substance?
A: Its GALNT1 expression is 7.895.

Q: And the GALNT6 expression?
A: Its GALNT6 expression is 5.873.

Q: And the GAPVD1 expression?
A: The GAPVD1 expression was 9.838.

Q: What about the GLRA1 expression of the same substance?
A: The GLRA1 expression was 5.643.

Q: And the GM239 expression?
A: Its GM239 expression is 5.731.

Q: What about the GM438 expression of the same substance?
A: The GM438 expression was 5.731.

Q: And the GM949 expression?
A: Its GM949 expression is 5.662.

Q: What about the GPR12 expression of the same substance?
A: The GPR12 expression was 5.747.

Q: What about the GPRIN3 expression of the same substance?
A: Its GPRIN3 expression is 5.628.

Q: What about the GUCY2C expression of the same substance?
A: Its GUCY2C expression is 5.74.

Q: What about the HARS expression of the same substance?
A: Its HARS expression is 6.212.

Q: What about the HBB-B1 expression of the same substance?
A: The HBB-B1 expression was 13.28.

Q: And the HEATR5B expression?
A: The HEATR5B expression was 6.251.

Q: What about the HIRA expression of the same substance?
A: The HIRA expression was 5.73.

Q: And the HIVEP3 expression?
A: Its HIVEP3 expression is 5.796.

Q: What about the HPN expression of the same substance?
A: The HPN expression was 5.793.

Q: And the HRK expression?
A: Its HRK expression is 5.72.

Q: And the HSD362 expression?
A: The HSD362 expression was 5.745.

Q: What about the HSPA1B expression of the same substance?
A: The HSPA1B expression was 5.99.

Q: And the ID2 expression?
A: Its ID2 expression is 6.095.

Q: And the IFI204 expression?
A: Its IFI204 expression is 5.486.

Q: And the “IGHV14S3—X03573$M12991X03573—IG_HEAVY—VARIABLE_14S3_203 expression” value?
A: Its value is 6.044.

Q: And the IKZF5 expression?
A: The IKZF5 expression was 7.23.

Q: What about the IL1F9 expression of the same substance?
A: The IL1F9 expression was 5.644.

Q: And the INPP4B expression?
A: The INPP4B expression was 9.329.

Q: What about the INSL6 expression of the same substance?
A: Its INSL6 expression is 9.438.

Q: And the ITGA6 expression?
A: The ITGA6 expression was 6.589.

Q: What about the ITK expression of the same substance?
A: The ITK expression was 10.36.

Q: What about the JRKL expression of the same substance?
A: Its JRKL expression is 5.816.

Q: What about the K20D4 expression of the same substance?
A: The K20D4 expression was 5.688.

Q: And the KAT2B expression?
A: The KAT2B expression was 6.564.

Q: What about the KCNK4 expression of the same substance?
A: The KCNK4 expression was 5.659.

Q: What about the KISS1 expression of the same substance?
A: The KISS1 expression was 5.727.

Q: What about the KRIT1 expression of the same substance?
A: Its KRIT1 expression is 5.684.

Q: What about the KRT32 expression of the same substance?
A: Its KRT32 expression is 6.01.

Q: And the LCN3 expression?
A: The LCN3 expression was 5.859.

Q: What about the LCP2 expression of the same substance?
A: The LCP2 expression was 6.557.

Q: And the LOC209474 expression?
A: The LOC209474 expression was 5.679.

Q: What about the LOC229152 expression of the same substance?
A: Its LOC229152 expression is 5.605.

Q: What about the LOC236397 expression of the same substance?
A: The LOC236397 expression was 5.838.

Q: What about the LOC236831 expression of the same substance?
A: The LOC236831 expression was 12.43.

Q: What about the LOC268939 expression of the same substance?
A: The LOC268939 expression was 5.99.

Q: And the LOC279638 expression?
A: Its LOC279638 expression is 6.022.

Q: What about the LOC333749 expression of the same substance?
A: Its LOC333749 expression is 5.939.

Q: What about the LOC381448 expression of the same substance?
A: The LOC381448 expression was 12.91.

Q: What about the LOC381561 expression of the same substance?
A: Its LOC381561 expression is 13.17.

Q: What about the LOC381770 expression of the same substance?
A: Its LOC381770 expression is 6.112.

Q: What about the LOC382061 expression of the same substance?
A: The LOC382061 expression was 10.4.

Q: And the LOC382454 expression?
A: The LOC382454 expression was 5.761.

Q: What about the LOC384240 expression of the same substance?
A: Its LOC384240 expression is 5.807.

Q: And the LOC384287 expression?
A: Its LOC384287 expression is 5.612.

Q: And the LOC385027 expression?
A: Its LOC385027 expression is 5.666.

Q: What about the LOC385046 expression of the same substance?
A: The LOC385046 expression was 5.695.

Q: And the LOC630421 expression?
A: Its LOC630421 expression is 5.995.

Q: What about the LOC637082 expression of the same substance?
A: Its LOC637082 expression is 5.805.

Q: And the LOC674087 expression?
A: The LOC674087 expression was 8.034.

Q: What about the LOC675899 expression of the same substance?
A: Its LOC675899 expression is 11.9.

Q: What about the LOC100045437 expression of the same substance?
A: The LOC100045437 expression was 5.74.

Q: And the LOC100046343 expression?
A: Its LOC100046343 expression is 8.607.

Q: What about the LOC100046568 expression of the same substance?
A: Its LOC100046568 expression is 5.888.

Q: And the LOC100048049 expression?
A: Its LOC100048049 expression is 5.81.

Q: What about the LOC100048616 expression of the same substance?
A: The LOC100048616 expression was 6.595.

Q: And the LOXL3 expression?
A: The LOXL3 expression was 5.801.

Q: What about the LPIN2 expression of the same substance?
A: The LPIN2 expression was 7.582.

Q: And the LRRC18 expression?
A: Its LRRC18 expression is 5.542.

Q: What about the LRRC39 expression of the same substance?
A: The LRRC39 expression was 5.712.

Q: And the MACROD2 expression?
A: Its MACROD2 expression is 5.854.

Q: What about the MADD expression of the same substance?
A: Its MADD expression is 5.584.

Q: And the MAT2A expression?
A: The MAT2A expression was 8.359.

Q: What about the MDM2 expression of the same substance?
A: Its MDM2 expression is 10.46.

Q: What about the MEDI expression of the same substance?
A: Its MEDI expression is 5.672.

Q: And the MEX3A expression?
A: Its MEX3A expression is 6.913.

Q: And the MIA3 expression?
A: The MIA3 expression was 5.862.

Q: What about the MIS12 expression of the same substance?
A: Its MIS12 expression is 5.989.

Q: And the MKI67 expression?
A: Its MKI67 expression is 5.673.

Q: And the MRPS31 expression?
A: Its MRPS31 expression is 5.671.

Q: What about the MSH3 expression of the same substance?
A: Its MSH3 expression is 6.288.

Q: And the MYB expression?
A: The MYB expression was 5.95.

Q: What about the MYO5C expression of the same substance?
A: The MYO5C expression was 5.73.

Q: What about the NA112 expression of the same substance?
A: The NA112 expression was 8.275.

Q: And the NANP expression?
A: The NANP expression was 5.686.

Q: What about the NARF expression of the same substance?
A: The NARF expression was 7.224.

Q: And the NCOA2 expression?
A: Its NCOA2 expression is 5.964.

Q: And the NDRG1 expression?
A: Its NDRG1 expression is 7.329.

Q: And the NIN expression?
A: Its NIN expression is 8.534.

Q: And the NIPSNAP1 expression?
A: Its NIPSNAP1 expression is 9.27.

Q: What about the NT5C expression of the same substance?
A: The NT5C expression was 10.09.

Q: What about the NUFIP2 expression of the same substance?
A: The NUFIP2 expression was 6.03.

Q: What about the OLFR125 expression of the same substance?
A: The OLFR125 expression was 5.697.

Q: And the OLFR463 expression?
A: The OLFR463 expression was 5.805.

Q: And the OLFR504 expression?
A: The OLFR504 expression was 5.746.

Q: And the OLFR564 expression?
A: Its OLFR564 expression is 5.592.

Q: And the OLFR782 expression?
A: The OLFR782 expression was 5.74.

Q: And the OLFR894 expression?
A: Its OLFR894 expression is 5.766.

Q: And the PAPPA expression?
A: The PAPPA expression was 5.918.
